For 23 molecules, Ki results are on record in patent US8044079B2, “Substituted oxindole derivatives, medicaments containing said derivatives and use thereof” (Abbott GmbH & Co. KG, priority 2005, dated 2011).

The assay deals with T1, human vasopressin V1b receptor (Homo sapiens, UniProt P47901).
T1 construct: expressed in transfected cells; host or cells: CHO-K1 (cell line hV1b_3H2_CHO), membrane preparation
T1 sequence (P47901 1-424): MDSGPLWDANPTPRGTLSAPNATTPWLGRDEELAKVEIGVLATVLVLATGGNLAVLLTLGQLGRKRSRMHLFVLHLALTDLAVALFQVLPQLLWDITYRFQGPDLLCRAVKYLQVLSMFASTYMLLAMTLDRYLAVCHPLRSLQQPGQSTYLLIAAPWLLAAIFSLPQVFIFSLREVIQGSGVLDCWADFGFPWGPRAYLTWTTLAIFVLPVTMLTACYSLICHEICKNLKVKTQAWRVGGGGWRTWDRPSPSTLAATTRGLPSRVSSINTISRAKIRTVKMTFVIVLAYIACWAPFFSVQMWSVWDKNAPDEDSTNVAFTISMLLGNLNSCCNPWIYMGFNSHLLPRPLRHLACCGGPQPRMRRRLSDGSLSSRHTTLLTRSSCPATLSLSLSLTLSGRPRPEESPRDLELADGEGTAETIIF
Put plainly: Vasopressin V1b receptor binding test. The settings on record: membranes of CHO-K1 cells with human V1b receptor, displacement of 1.5 nM 3H-AVP; for compounds with more than one stereogenic center the diastereomer with greater affinity. Summed up: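 Radioligand displacement on membranes carrying human V1b receptor in 50 mM tris, 10 mM MgCl2, 0.1% BSA, pH 7.4, 2% DMSO final; 60 min at room temperature, nonspecific binding with 1 μM AVP. Free ligand removed by filtration, bound counted by liquid scintillation, Ki from nonlinear regression of triplicates.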

As a reminder, the Ki is a measure of affinity in units of concentration, obtained from inhibition or displacement. Low readings indicate a stronger hold on the target, high ones a looser hold on the target. Turning to `COc1ccc(S(=O)(=O)N2C(=O)C(c3cc(CN4CCN(C)CC4)ccc3OC)(N3CCC[C@H]3c3ncc(C)o3)c3cc(Cl)ccc32)cc1` (stereo partly drawn) [Example 235, 5-Chloro-1-(4-methoxybenzenesulfonyl)-3-[2-methoxy-5-(4-methylpiperazin-1-ylmethyl)phenyl]-3-[(S)-2-(5-methyloxazol-2-yl)-pyrrolidin-1-yl]-1,3-dihydroindol-2-one], the Ki was in the range of 10 to 100 nM.

`COc1ccc(S(=O)(=O)N2C(=O)C(c3cc(CN4CCC4)ccc3OC)(N3CCC[C@H]3c3ncco3)c3cc(Cl)ccc32)cc1` (single isomer, unassigned) [Example 12] yielded a Ki of less than 10 nM.

With `COc1cc(CN2CCNCC2)ccc1C1(N2CCC[C@H]2c2ncco2)C(=O)N(S(=O)(=O)c2ccc(C#N)cc2)c2ccc(Cl)cc21` (stereo partly drawn) [Example 162, 5-Chloro-3-(2-methoxy-4-piperazin-1-ylmethylphenyl)-3-((S)-2-oxazol-2-yl-pyrrolidin-1-yl)-1-(4-cyanobenzenesulfonyl)-1,3-dihydroindol-2-one], the Ki was less than 10 nM. For `C=CCNCc1ccc(OC)c(C2(N3CCC[C@H]3c3ncco3)C(=O)N(S(=O)(=O)c3ccc(OC)cc3)c3ccc(Cl)cc32)c1` (stereo partly drawn) [Example 161, 5-Chloro-3-(5-allylaminomethyl-2-methoxyphenyl)-1-(4-methoxybenzenesulfonyl)-3-((S)-2-oxazol-2-yl-pyrrolidin-1-yl)-1,3-dihydroindol-2-one], the Ki was less than 10 nM. In the case of `CNCc1ccc(OC)c(C2(N3C[C@H](O)C[C@H]3c3ncco3)C(=O)N(S(=O)(=O)c3ccc(OC)cc3)c3ccc(Cl)cc32)c1` (stereo partly drawn) [Example 105, 5-Chloro-3-((2S,4R)-4-hydroxy-2-oxazol-2-yl-pyrrolidin-1-yl)-1-(4-methoxybenzenesulfonyl)-3-(2-methoxy-5-(methylaminomethyl)phenyl)-1,3-dihydroindol-2-one], the inhibitory constant (Ki) is less than 10 nM.

The molecule `CCN(C)Cc1ccc(C2(N3C[C@H](O)C[C@H]3c3ncco3)C(=O)N(S(=O)(=O)c3ccc(OC)cc3)c3ccc(Cl)cc32)c(OC)c1` (stereo partly drawn) [Example 170, 5-Chloro-3-{4-[(ethylmethylamino)methyl]-2-methoxyphenyl}-3-((2S,4R)-4-hydroxy-2-oxazol-2-yl-pyrrolidin-1-yl)-1-(4-methoxybenzenesulfonyl)-1,3-dihydroindol-2-one] yielded a Ki of less than 10 nM. The figure for `COc1ccc(S(=O)(=O)N2C(=O)C(c3cc(CN4CCN(C)CC4)ccc3OC)(N3CCC[C@H]3c3ncco3)c3ccc(Cl)cc32)cc1` (stereo partly drawn) [Example 35, 6-Chloro-1-(4-methoxybenzenesulfonyl)-3-[2-methoxy-5-(4-methylpiperazin-1-ylmethyl)phenyl]-3-((S)-2-oxazol-2-yl-pyrrolidin-1-yl)-1,3-dihydroindol-2-one] is 100 to 1000 nM; for `COc1ccc(S(=O)(=O)N2C(=O)C(c3cc(CN4CCN(C)CC4)cc4c3OCO4)(N3CCC[C@H]3c3ncco3)c3cc(Cl)ccc32)cc1` (stereo partly drawn) [Example 184, 5-Chloro-1-(4-methoxybenzenesulfonyl)-3-[6-(4-methylpiperazin-1-ylmethyl)benzo[1,3]dioxol-4-yl]-3-((S)-2-oxazol-2-yl-pyrrolidin-1-yl)-1,3-dihydroindol-2-one] it is less than 10 nM.

On to `COc1ccc(S(=O)(=O)N2C(=O)C(c3ccc(CO)cc3OC)(N3CCC[C@H]3c3ncco3)c3cc(Cl)ccc32)cc1` (stereo partly drawn) [Example 15, 5-Chloro-3-(4-hydroxymethyl-2-methoxyphenyl)-1-(4-methoxybenzenesulfonyl)-3-((S)-2-oxazol-2-yl-pyrrolidin-1-yl)-1,3-dihydroindol-2-one], for which the Ki fell in the range of 10 to 100 nM. On to `COc1ccc(S(=O)(=O)N2C(=O)C(c3cc(CN4CCOCC4)ccc3OC)(N3CCC[C@H]3c3ncco3)c3cc(C#N)ccc32)cc1` (stereo partly drawn) [Example 58, 5-Cyano-1-(4-methoxybenzenesulfonyl)-3-(2-methoxy-5-morpholin-4-ylmethylphenyl)-3-((S)-2-oxazol-2-yl-pyrrolidin-1-yl)-1,3-dihydroindol-2-one], for which the Ki fell in the range of 10 to 100 nM.

Take `CCN(CC)Cc1ccc(OC)c(C2(N3CCC[C@H]3c3ncco3)C(=O)N(S(=O)(=O)c3ccc(OC)cc3)c3ccc(Cl)cc32)c1` (stereo partly drawn) [Example 7, 5-Chloro-3-(5-diethylaminomethyl-2-methoxyphenyl)-1-(4-methoxybenzenesulfonyl)-3-((S)-2-oxazol-2-yl-pyrrolidin-1-yl)-1,3-dihydroindol-2-one]: the Ki is less than 10 nM. Next, `COc1ccc(S(=O)(=O)N2C(=O)C(c3cc(CN4CCN(C(C)C)CC4)ccc3OC)(N3CCC[C@H]3c3ncco3)c3cc(Cl)ccc32)cc1` (stereo partly drawn) [Example 89, 5-Chloro-3-[5-(4-isopropylpiperazin-1-ylmethyl)-2-methoxyphenyl]-1-(4-methoxybenzenesulfonyl)-3-((S)-2-oxazol-2-yl-pyrrolidin-1-yl)-1,3-dihydroindol-2-one]: less than 10 nM; `CCN(CC)Cc1ccc(C2(N3CCC[C@H]3c3ncco3)C(=O)N(S(=O)(=O)c3ccc(OC)cc3)c3ccc(Cl)cc32)c(OC)c1` (stereo partly drawn) [Example 19, 5-Chloro-3-(4-diethylaminomethyl-2-methoxyphenyl)-1-(4-methoxybenzenesulfonyl)-3-((S)-2-oxazol-2-yl-pyrrolidin-1-yl)-1,3-dihydroindol-2-one]: less than 10 nM; `COc1ccc(S(=O)(=O)N2C(=O)C(c3cc(CN4CCNCC4)ccc3OC)(N3CCCC3c3ccccn3)c3cc(Cl)ccc32)cc1` (centres unmarked) [Example 126, 5-Chloro-1-(4-methoxybenzenesulfonyl)-3-(2-methoxy-5-piperazin-1-ylmethylphenyl)-3-(2-pyridin-2-yl-pyrrolidin-1-yl)-1,3-dihydroindol-2-one]: 100 to 1000 nM. As to `CCN1CCN(Cc2ccc(OC)c(C3(N4CCC[C@H]4c4ncco4)C(=O)N(S(=O)(=O)c4ccc(OC)cc4)c4ccc(Cl)cc43)c2)CC1` (stereo partly drawn) [Example 88, 5-Chloro-3-[5-(4-ethylpiperazin-1-ylmethyl)-2-methoxyphenyl]-1-(4-methoxybenzenesulfonyl)-3-((S)-2-oxazol-2-yl-pyrrolidin-1-yl)-1,3-dihydroindol-2-one], the inhibitory constant (Ki) is less than 10 nM. For `COc1ccc(S(=O)(=O)N2C(=O)C(c3cc(CN4CCN(C)CC4)ccc3F)(N3CCC[C@H]3c3ncco3)c3cc(Cl)ccc32)cc1` (stereo partly drawn) [Example 173, 5-Chloro-3-[2-fluoro-5-(4-methylpiperazin-1-ylmethyl)phenyl]-1-(4-methoxybenzenesulfonyl)-3-((S)-2-oxazol-2-yl-pyrrolidin-1-yl)-1,3-dihydroindol-2-one], the Ki lay in the range of 10 to 100 nM. In turn, `COc1ccc(S(=O)(=O)N2C(=O)C(c3ccc(CN4CCOCC4)cc3OC)(N3CCC[C@H]3c3ncco3)c3cc(C#N)ccc32)cc1` (stereo partly drawn) [Example 43, 5-Cyano-1-(4-methoxybenzenesulfonyl)-3-(2-methoxy-4-morpholin-4-ylmethylphenyl)-3-((S)-2-oxazol-2-yl-pyrrolidin-1-yl)-1,3-dihydroindol-2-one] gave an inhibition constant (Ki) of 100 to 1000 nM. The figure for `CCN1CCN(Cc2ccc(C3(N4CCC[C@H]4c4ncco4)C(=O)N(S(=O)(=O)c4ccc(OC)cc4)c4ccc(C#N)cc43)c(OC)c2)CC1` (stereo partly drawn) [Example 148, 5-Cyano-3-[4-(4-ethylpiperazin-1-ylmethyl)-2-methoxyphenyl]-1-(4-methoxybenzenesulfonyl)-3-((S)-2-oxazol-2-yl-pyrrolidin-1-yl)-1,3-dihydroindol-2-one] is less than 10 nM; for `COc1ccc(S(=O)(=O)N2C(=O)C(c3cc(CN4CCN(C)CC4)ccc3OC)(N3CCC[C@H]3c3ncco3)c3cc(Cl)ccc32)cc1` (single isomer, unassigned) [Example 1] it is less than 10 nM. The molecule `COc1ccc(S(=O)(=O)N2C(=O)C(c3cc(CN4CCCN(C)CC4)ccc3OC)(N3CCC[C@H]3c3ncco3)c3cc(C#N)ccc32)cc1` (stereo partly drawn) [Example 144, 5-Cyano-1-(4-methoxybenzenesulfonyl)-3-[2-methoxy-5-(4-methyl-[1,4]diazepan-1-ylmethyl)phenyl]-3-((S)-2-oxazol-2-yl-pyrrolidin-1-yl)-1,3-dihydroindol-2-one] showed a Ki of less than 10 nM.

Molecule `CCCNCc1ccc(C2(N3CCC[C@H]3c3ncco3)C(=O)N(S(=O)(=O)c3ccc(C#N)cc3)c3ccc(Cl)cc32)c(OC)c1` (stereo partly drawn) [Example 159, 5-Chloro-3-(2-methoxy-4-propylaminomethylphenyl)-3-((S)-2-oxazol-2-yl-pyrrolidin-1-yl)-1-(4-cyanobenzenesulfonyl)-1,3-dihydroindol-2-one] gave a Ki of 10 to 100 nM. The figure for `COc1ccc(S(=O)(=O)N2C(=O)C(c3cc(CN4CCNCC4)ccc3OC)(N3C[C@H](O)C[C@H]3c3ncco3)c3cc(C#N)ccc32)cc1` (stereo partly drawn) [Example 160, 5-Cyano-3-((2S,4R)-4-hydroxy-2-oxazol-2-yl-pyrrolidin-1-yl)-1-(4-methoxybenzenesulfonyl)-3-(2-methoxy-5-piperazin-1-ylmethylphenyl)-1,3-dihydroindol-2-one] is less than 10 nM. Next, `COc1ccc(S(=O)(=O)N2C(=O)C(c3ccc(CNC(C)C)cc3OC)(N3CCC[C@H]3c3ncco3)c3cc(Cl)ccc32)cc1` (stereo partly drawn) [Example 136, 5-Chloro-3-[4-(isopropylaminomethyl)-2-methoxyphenyl]-1-(4-methoxybenzenesulfonyl)-3-((S)-2-oxazol-2-yl-pyrrolidin-1-yl)-1,3-dihydroindol-2-one]: 10 to 100 nM.
